What was measured:
HeLa = assay: Cytotoxicity against human HeLa cells by MTT assay; type: functional, cell-based
[1] = Cytotoxicity against human Bel7402 cells by MTT assay; type: functional, cell-based; details: Bel-7402
P388 = assay: Cytotoxicity against mouse P388 cells by SRB assay; type: functional, cell-based
HEK293 = assay: Cytotoxicity against HEK293 cells by MTT assay; type: cell-based; details: Homo sapiens
HCT-116 = assay: Cytotoxicity against human HCT116 cells by MTT assay; type: functional, cell-based

Measured: IC50

C/C=C/C=C/C(=O)C1=C(N)[C@](C)(O)[C@]2(O)O[C@]3(C)C(O)=C(C)C(=O)/C(=C(O)/C=C/C=C/C)[C@@H]3[C@]2(C)C1=O
> 10 µM: HeLa | [1] | P388 | HEK293 | HCT-116

C/C=C/C=C/C(O)=C1\C(=O)[C@]2(C)C(=O)C(C)(O)[C@H]1[C@H](C(=O)C1=C(N)[C@](C)(O)[C@]3(O)O[C@]4(C)C(O)=C(C)C(=O)\C(=C(O)/C=C/C=C/C)[C@@H]4[C@]3(C)C1=O)[C@H]2/C=C/C (stereo not given in full)
> 10 µM: HeLa | [1] | P388 | HEK293 | HCT-116

C/C=C/C=C/C(=O)C1=C(O)[C@]2(C)C(=O)[C@@](C)(O)[C@H]1N1CCC[C@@H]12
> 10 µM: HeLa | [1] | P388 | HEK293 | HCT-116

C/C=C/C=C/C(O)=C1/C(=O)C(C)=C(O)[C@@]2(C)O[C@@]3(O)[C@@](C)(O)C4=C(C(=O)C[C@@H](/C=C/C)N4)C(=O)[C@@]3(C)[C@@H]12
> 10 µM: HeLa | [1] | P388 | HEK293 | HCT-116

C/C=C/C=C/C(O)=C1/C(=O)C(C)=C(O)[C@@]2(C)O[C@@]3(O)[C@@](C)(O)C4=C(C(=O)C[C@H](/C=C/C)N4)C(=O)[C@@]3(C)[C@@H]12
> 10 µM: HeLa | [1] | P388 | HEK293 | HCT-116

— ChEMBL document CHEMBL3091383, “Sorbicillamines A-E, nitrogen-containing sorbicillinoids from the deep-sea-derived fungus Penicillium sp. F23-2” (J Nat Prod, 2013)
